Earlier results, collected in US20230398127A1, “USE OF COMBINED ORAL CONTRACEPTIVES CONTAINING NOMEGESTROL ACETATE AND ESTRADIOL” (THERAMEX HQ UK LIMITED, priority 2020, published 2023).

Target: T1, progesterone receptor (Homo sapiens, UniProt P06401)
T1 sequence (P06401 1-933): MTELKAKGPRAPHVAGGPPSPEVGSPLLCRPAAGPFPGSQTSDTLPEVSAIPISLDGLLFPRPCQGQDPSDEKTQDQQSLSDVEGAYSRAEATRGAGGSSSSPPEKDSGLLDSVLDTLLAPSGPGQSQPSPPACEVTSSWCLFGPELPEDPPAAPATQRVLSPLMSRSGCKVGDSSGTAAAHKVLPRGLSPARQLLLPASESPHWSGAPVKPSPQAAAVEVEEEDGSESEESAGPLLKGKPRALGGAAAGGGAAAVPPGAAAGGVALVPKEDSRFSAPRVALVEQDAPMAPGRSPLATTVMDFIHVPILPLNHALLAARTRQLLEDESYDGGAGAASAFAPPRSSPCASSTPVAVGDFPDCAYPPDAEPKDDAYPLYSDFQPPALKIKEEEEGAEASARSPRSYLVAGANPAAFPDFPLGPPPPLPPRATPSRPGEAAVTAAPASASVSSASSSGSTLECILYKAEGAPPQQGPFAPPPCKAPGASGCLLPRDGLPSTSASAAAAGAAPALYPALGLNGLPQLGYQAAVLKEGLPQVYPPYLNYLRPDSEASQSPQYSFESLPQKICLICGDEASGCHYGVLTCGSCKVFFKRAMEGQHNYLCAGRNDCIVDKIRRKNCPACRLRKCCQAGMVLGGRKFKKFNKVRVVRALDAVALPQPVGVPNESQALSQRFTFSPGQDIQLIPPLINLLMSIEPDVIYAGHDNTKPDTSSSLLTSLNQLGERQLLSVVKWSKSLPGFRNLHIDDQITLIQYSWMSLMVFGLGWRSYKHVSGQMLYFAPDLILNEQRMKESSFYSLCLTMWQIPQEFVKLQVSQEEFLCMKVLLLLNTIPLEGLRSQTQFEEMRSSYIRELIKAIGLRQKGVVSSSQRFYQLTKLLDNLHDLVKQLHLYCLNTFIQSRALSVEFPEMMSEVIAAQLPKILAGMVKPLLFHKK

## CC(=O)O[C@]1(C(C)=O)CC[C@H]2[C@@H]3C=C(C)C4=CC(=O)CC[C@@H]4[C@H]3CC[C@@]21C [nomegestrol acetate, 17α-acetoxy-6-methyl-19-norpregna-4,6-diene-3,20-dione]
  Affinity for the progesterone receptor: strong
